Reference: patent publication US9266892B2, “Fused pyrazoles as FGFR inhibitors” (Incyte Corporation, priority 2012, dated 2016)

How the values were obtained:
Type in all cases: biochemical
[1] = molecular target: T1, FGFR2 (Homo sapiens, UniProt P21802); experiment: FGFR Enzymatic Assay (FRET peptide phosphorylation), FGFR2; details: FGFR2 0.01 nM, ATP 100 μM
T1 construct: purchased Millipore or Invitrogen
Method: (§1) The inhibitor potency of the Example compounds was measured in an enzyme assay that measures peptide phosphorylation using FRET measurements to detect product formation. Inhibitors were serially diluted in DMSO and a volume of 0.5 μL was transferred to the wells of a 384-well plate. For FGFR3, a 10 μL volume of FGFR3 enzyme (Millipore) diluted in assay buffer (50 mM HEPES, 10 mM MgCl2, 1 mM EGTA, 0.01% Tween-20, 5 mM DTT, pH 7.5) was added to the plate and pre-incubated for 5-10 minutes. Appropriate controls (enzyme blank and enzyme with no inhibitor) were included on the plate. The assay was initiated by the addition of a 10 μL solution containing biotinylated EQEDEPEGDYFEWLE peptide substrate (SEQ ID NO: 1) and ATP (final concentrations of 500 nM and 140 μM respectively) in assay buffer to the wells. The plate was incubated at 25° C. for 1 hr. The reactions were ended with the addition of 10 μL/well of quench solution (50 mM Tris, 150 mM NaCl, 0.5 mg/mL BSA, pH˜7.8, 30 mM EDTA with Perkin Elmer Lance Detection Reagents at 3.75 nM Eu-antibody PY20 and 180 nM APC-Streptavidin). The plate was allowed to equilibrate for 1 hour before scanning the wells on a PheraStar plate reader (BMG Labtech). The enzymes were purchased from Millipore or Invitrogen.
(§2) FGFR1 and FGFR2 were measured under equivalent conditions with the following changes in enzyme and ATP concentrations: FGFR1, 0.02 nM and 210 μM, respectively and FGFR2, 0.01 nM and 100 μM, respectively.
(§3) GraphPad prism3 was used to analyze the data. The IC50 values were derived by fitting the data to the equation for a sigmoidal dose-response with a variable slope. Y=Bottom+(Top−Bottom)/(1+10^((Log IC50−X)*HillSlope)) where X is the logarithm of concentration and Y is the response.

[2] = molecular target: T2, FGFR3 (Homo sapiens, UniProt P22607); experiment: FGFR Enzymatic Assay (FRET peptide phosphorylation), FGFR3; details: ATP 140 μM, 25° C. for 1 hr
T2 construct: purchased Millipore
Method: as §1, §3

[3] = molecular target: T3, FGFR1 (Homo sapiens, UniProt P11362); experiment: FGFR Enzymatic Assay (FRET peptide phosphorylation), FGFR1; details: FGFR1 0.02 nM, ATP 210 μM
T3 construct: purchased Millipore or Invitrogen
Method: as §1, §2, §3

Measured: IC50

T3 sequence (P11362 22-822): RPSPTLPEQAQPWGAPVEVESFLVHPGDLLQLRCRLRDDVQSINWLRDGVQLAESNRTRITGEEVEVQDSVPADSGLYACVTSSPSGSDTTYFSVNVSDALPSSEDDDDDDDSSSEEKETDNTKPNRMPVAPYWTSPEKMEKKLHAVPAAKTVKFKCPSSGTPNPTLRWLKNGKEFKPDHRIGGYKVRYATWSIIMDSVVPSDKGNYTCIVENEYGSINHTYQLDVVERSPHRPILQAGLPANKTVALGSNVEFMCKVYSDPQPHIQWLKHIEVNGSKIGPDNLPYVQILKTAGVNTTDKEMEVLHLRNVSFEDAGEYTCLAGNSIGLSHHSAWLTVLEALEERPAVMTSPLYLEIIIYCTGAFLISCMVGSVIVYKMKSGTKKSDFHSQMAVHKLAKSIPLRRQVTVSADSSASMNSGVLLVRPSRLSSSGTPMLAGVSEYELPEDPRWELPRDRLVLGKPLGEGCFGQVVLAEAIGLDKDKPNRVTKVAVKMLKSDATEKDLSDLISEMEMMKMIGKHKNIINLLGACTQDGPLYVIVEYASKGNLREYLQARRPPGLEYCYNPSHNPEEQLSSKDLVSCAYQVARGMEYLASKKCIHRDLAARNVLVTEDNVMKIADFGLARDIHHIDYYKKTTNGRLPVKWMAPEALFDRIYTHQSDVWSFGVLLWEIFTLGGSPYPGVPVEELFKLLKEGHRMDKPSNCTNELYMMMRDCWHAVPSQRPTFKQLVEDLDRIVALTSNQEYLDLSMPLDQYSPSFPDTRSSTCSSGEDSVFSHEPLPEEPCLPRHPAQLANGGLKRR
T2 sequence (P22607 23-806): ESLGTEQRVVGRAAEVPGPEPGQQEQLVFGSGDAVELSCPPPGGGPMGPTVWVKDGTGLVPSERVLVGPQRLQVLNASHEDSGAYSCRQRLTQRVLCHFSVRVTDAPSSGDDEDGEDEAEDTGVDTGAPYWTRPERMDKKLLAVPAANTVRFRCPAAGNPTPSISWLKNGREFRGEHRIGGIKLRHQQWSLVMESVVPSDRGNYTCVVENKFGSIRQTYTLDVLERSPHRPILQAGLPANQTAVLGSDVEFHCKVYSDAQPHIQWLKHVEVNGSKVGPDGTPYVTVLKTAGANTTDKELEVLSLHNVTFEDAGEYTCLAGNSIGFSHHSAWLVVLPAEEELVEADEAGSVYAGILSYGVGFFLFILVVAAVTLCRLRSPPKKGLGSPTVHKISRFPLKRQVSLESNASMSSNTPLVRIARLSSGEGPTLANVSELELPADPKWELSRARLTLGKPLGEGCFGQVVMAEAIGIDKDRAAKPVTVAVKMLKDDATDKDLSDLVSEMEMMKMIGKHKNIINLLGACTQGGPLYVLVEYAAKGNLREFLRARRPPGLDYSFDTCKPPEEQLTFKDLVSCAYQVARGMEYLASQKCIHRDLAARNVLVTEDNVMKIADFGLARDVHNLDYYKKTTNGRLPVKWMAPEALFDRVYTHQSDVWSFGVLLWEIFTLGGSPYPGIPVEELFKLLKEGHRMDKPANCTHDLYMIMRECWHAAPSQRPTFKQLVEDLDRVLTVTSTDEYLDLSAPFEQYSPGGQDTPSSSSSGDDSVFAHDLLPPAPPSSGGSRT
T1 sequence (P21802 22-821): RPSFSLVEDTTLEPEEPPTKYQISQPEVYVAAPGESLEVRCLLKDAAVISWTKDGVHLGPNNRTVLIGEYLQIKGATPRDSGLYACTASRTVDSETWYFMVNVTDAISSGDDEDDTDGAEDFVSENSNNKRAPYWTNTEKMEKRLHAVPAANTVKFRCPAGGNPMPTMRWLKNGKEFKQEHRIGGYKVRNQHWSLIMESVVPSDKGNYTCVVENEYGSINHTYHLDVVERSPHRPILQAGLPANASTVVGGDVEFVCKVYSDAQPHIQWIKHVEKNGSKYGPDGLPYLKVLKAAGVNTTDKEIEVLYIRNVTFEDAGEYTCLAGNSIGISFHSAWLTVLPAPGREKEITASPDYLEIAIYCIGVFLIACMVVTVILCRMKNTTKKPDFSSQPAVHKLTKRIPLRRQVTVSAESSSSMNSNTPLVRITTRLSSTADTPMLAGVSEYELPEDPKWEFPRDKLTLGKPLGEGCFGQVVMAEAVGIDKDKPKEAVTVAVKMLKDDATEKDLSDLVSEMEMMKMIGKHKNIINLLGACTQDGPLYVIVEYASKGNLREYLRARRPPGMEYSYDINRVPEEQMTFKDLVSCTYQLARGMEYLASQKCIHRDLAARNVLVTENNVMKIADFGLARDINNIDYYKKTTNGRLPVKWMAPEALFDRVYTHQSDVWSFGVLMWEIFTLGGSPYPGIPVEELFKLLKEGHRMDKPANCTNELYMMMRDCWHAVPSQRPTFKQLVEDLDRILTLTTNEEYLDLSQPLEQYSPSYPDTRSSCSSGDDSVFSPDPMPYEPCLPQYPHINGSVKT

COC(=O)c1cc2cc(-c3n[nH]c4cc(-c5c(F)c(OC)cc(OC)c5F)ncc34)ccc2o1 [Example 92, Methyl 5-[6-(2,6-difluoro-3,5-dimethoxyphenyl)-1H-pyrazolo[4,3-c]pyridin-3-yl]-1-benzofuran-2-carboxylate]
< 100 nM: all assays above

COc1cc(OC)c(Cl)c(-c2cc3[nH]nc(-c4cnn(CC(=O)N5CCOCC5)c4)c3cn2)c1Cl [Example 40, 6-(2,6-Dichloro-3,5-dimethoxyphenyl)-3-[1-(2-morpholin-4-yl-2-oxoethyl)-1H-pyrazol-4-yl]-1H-pyrazolo[4,3-c]pyridine]
< 100 nM: all assays above

COc1ccc(C#Cc2n[nH]c3nc(-c4c(F)c(OC)cc(OC)c4F)ncc23)cc1 [Example 14, 6-(2,6-Difluoro-3,5-dimethoxyphenyl)-3-[(4-methoxyphenyl)ethynyl]-1H-pyrazolo[3,4-d]pyrimidine]
< 100 nM: all assays above

COc1cc(OC)c(Cl)c(-c2cc3[nH]nc(-c4ccc5c(c4)COC5=O)c3cn2)c1Cl [Example 32, 5-[6-(2,6-Dichloro-3,5-dimethoxyphenyl)-1H-pyrazolo[4,3-c]pyridin-3-yl]-2-benzofuran-1(3H)-one]
< 100 nM: all assays above

COc1cc(OC)c(Cl)c(-c2ncc3c(-c4ccc5c(c4)CCO5)n[nH]c3n2)c1Cl [Example 86, 6-(2,6-Dichloro-3,5-dimethoxyphenyl)-3-(2,3-dihydro-1-benzofuran-5-yl)-1H-pyrazolo[3,4-d]pyrimidine]
< 100 nM: all assays above

COc1cc(OC)c(Cl)c(-c2cnc3c(-c4cnn(CCCO)c4)n[nH]c3c2)c1Cl [Example 71, 3-{4-[6-(2,6-Dichloro-3,5-dimethoxyphenyl)-1H-pyrazolo[4,3-b]pyridin-3-yl]-1H-pyrazol-1-yl}propan-1-ol]
< 100 nM: all assays above

COc1cc(OC)c(F)c(-c2ncc3c(-c4cnn(C(C)C#N)c4)n[nH]c3n2)c1F (stereo not drawn) [Example 76, 2-{4-[6-(2,6-Difluoro-3,5-dimethoxyphenyl)-1H-pyrazolo[3,4-d]pyrimidin-3-yl]-1H-pyrazol-1-yl}propanenitrile]
< 100 nM: all assays above

COc1cc(OC)c(F)c(-c2ncc3c(-c4ccc5c(c4)CCNC5=O)n[nH]c3n2)c1F [Example 12, 6-[6-(2,6-Difluoro-3,5-dimethoxyphenyl)-1H-pyrazolo[3,4-d]pyrimidin-3-yl]-3,4-dihydroisoquinolin-1(2H)-one]
< 100 nM: all assays above

COc1cc(OC)c(Cl)c(-c2cc3[nH]nc(-c4ccc(C(O)C(=O)N(C)C)c(F)c4)c3cn2)c1Cl (stereo not drawn) [Example 34, 2-{4-[6-(2,6-Dichloro-3,5-dimethoxyphenyl)-1H-pyrazolo[4,3-c]pyridin-3-yl]-2-fluorophenyl}-2-hydroxy-N,N-dimethylacetamide]
< 100 nM: all assays above

COc1cc(OC)c(Cl)c(-c2cc3[nH]nc(-c4cnn(CC(=O)N5CC[C@H](F)C5)c4)c3cn2)c1Cl [Example 48, 6-(2,6-Dichloro-3,5-dimethoxyphenyl)-3-(1-{2-[(3S)-3-fluoropyrrolidin-1-yl]-2-oxoethyl}-1H-pyrazol-4-yl)-1H-pyrazolo[4,3-c]pyridine]
< 100 nM: all assays above

COc1cc(OC)c(Cl)c(-c2ncc3c(-c4ccc5c(c4)CCNC5=O)n[nH]c3n2)c1Cl [Example 8, 6-[6-(2,6-Dichloro-3,5-dimethoxyphenyl)-1H-pyrazolo[3,4-d]pyrimidin-3-yl]-3,4-dihydroisoquinolin-1(2H)-one]
< 100 nM: all assays above

COc1cc(OC)c(F)c(-c2cc3[nH]nc(-c4ccc5c(c4)CCC(C(=O)N(C)C)O5)c3cn2)c1F (stereo not drawn) [Example 57, 6-[6-(2,6-Difluoro-3,5-dimethoxyphenyl)-1H-pyrazolo[4,3-c]pyridin-3-yl]-N,N-dimethylchromane-2-carboxamide]
< 100 nM: all assays above

COc1cc(OC)c(F)c(-c2ncc3c(-c4ccc5c(c4)CN([C@H]4CC[C@@H](O)CC4)C5=O)n[nH]c3n2)c1F [Example 16, 5-[6-(2,6-Difluoro-3,5-dimethoxyphenyl)-1H-pyrazolo[3,4-d]pyrimidin-3-yl]-2-(cis-4-hydroxycyclohexyl)isoindolin-1-one]
< 100 nM: all assays above

COc1cc(OC)c(F)c(-c2cc3[nH]nc(-c4ccnc(N5CCN(C)CC5)c4)c3cn2)c1F [Example 27, 6-(2,6-Difluoro-3,5-dimethoxyphenyl)-3-[2-(4-methylpiperazin-1-yl)pyridin-4-yl]-1H-pyrazolo[4,3-c]pyridine]
< 100 nM: all assays above

COc1cc(OC)c(Cl)c(-c2cc3[nH]nc(-c4cnn(CC(=O)N5CC(O)C5)c4)c3cn2)c1Cl [Example 39, 1-({4-[6-(2,6-Dichloro-3,5-dimethoxyphenyl)-1H-pyrazolo[4,3-c]pyridin-3-yl]-1H-pyrazol-1-yl}acetyl)azetidin-3-ol]
< 100 nM: all assays above

COc1cc(OC)c(F)c(-c2cc3[nH]nc(-c4ccc5c(c4)CC(C(=O)N4CCN(C)CC4)O5)c3cn2)c1F (stereo not drawn) [Example 24, 6-(2,6-Difluoro-3,5-dimethoxyphenyl)-3-{2-[(4-methylpiperazin-1-yl)carbonyl]-2,3-dihydro-1-benzofuran-5-yl}-1H-pyrazolo[4,3-c]pyridine]
< 100 nM: all assays above

COc1cc(OC)c(Cl)c(-c2ncc3c(-c4ccc5c(c4)CN([C@H]4CC[C@H](O)CC4)C5=O)n[nH]c3n2)c1Cl [Example 23, 5-[6-(2,6-Dichloro-3,5-dimethoxyphenyl)-1H-pyrazolo[3,4-d]pyrimidin-3-yl]-2-(trans-4-hydroxycyclohexyl)isoindolin-1-one]
< 100 nM: all assays above

COc1cc(OC)c(F)c(-c2ncc3c(-c4ccc5nccn5c4)n[nH]c3n2)c1F [Example 93, 6-(2,6-Difluoro-3,5-dimethoxyphenyl)-3-imidazo[1,2-a]pyridin-6-yl-1H-pyrazolo[3,4-d]pyrimidine]
< 100 nM: all assays above

COc1cc(OC)c(Cl)c(-c2cc3[nH]nc(-c4cnn(CC(=O)N5CCC(O)C5)c4)c3cn2)c1Cl (stereo not drawn) [Example 43, 1-({4-[6-(2,6-Dichloro-3,5-dimethoxyphenyl)-1H-pyrazolo[4,3-c]pyridin-3-yl]-1H-pyrazol-1-yl}acetyl)pyrrolidin-3-ol]
< 100 nM: all assays above

COc1cc(OC)c(Cl)c(-c2cc3[nH]nc(-c4cnn(CC(=O)N5CCN(C)CC5)c4)c3cn2)c1Cl [Example 41, 6-(2,6-Dichloro-3,5-dimethoxyphenyl)-3-{1-[2-(4-methylpiperazin-1-yl)-2-oxoethyl]-1H-pyrazol-4-yl}-1H-pyrazolo[4,3-c]pyridine]
< 100 nM: all assays above

COc1cc(OC)c(Cl)c(-c2cc3[nH]nc(/C=C/c4cnn(C)c4)c3cn2)c1Cl [Example 49, 6-(2,6-Dichloro-3,5-dimethoxyphenyl)-3-[(E)-2-(1-methyl-1H-pyrazol-4-yl)vinyl]-1H-pyrazolo[4,3-c]pyridine]
< 100 nM: all assays above

COc1cc(OC)c(F)c(-c2cc3[nH]nc(-c4ccc5c(c4)CN(C4CCOCC4)C5=O)c3cn2)c1F [Example 59, 5-[6-(2,6-Difluoro-3,5-dimethoxyphenyl)-1H-pyrazolo[4,3-c]pyridin-3-yl]-2-(tetrahydro-2H-pyran-4-yl)isoindolin-1-one]
< 100 nM: all assays above

COc1cc(OC)c(F)c(-c2cc3[nH]nc(-c4ccc5c(c4)CN(C(C)CO)C5=O)c3cn2)c1F (stereo not drawn) [Example 63, 5-[6-(2,6-Difluoro-3,5-dimethoxyphenyl)-1H-pyrazolo[4,3-c]pyridin-3-yl]-2-(2-hydroxy-1-methylethyl)isoindolin-1-one]
< 100 nM: all assays above

COc1cc(OC)c(F)c(-c2cc3[nH]nc(-c4cnn(CCO)c4)c3cn2)c1F [Example 88, 2-{4-[6-(2,6-Difluoro-3,5-dimethoxyphenyl)-1H-pyrazolo[4,3-c]pyridin-3-yl]-1H-pyrazol-1-yl}ethanol]
< 100 nM: all assays above
